Reference: US20090270413A1, “DI-T-BUTYLPHENYL PIPERAZINES AS CALCIUM CHANNEL BLOCKERS” (priority 2008, published 2009)

Biological target: T1, Human Cav2.2 channels (Homo sapiens, UniProt Q00975)
T1 construct: expressed in transfected cells
Assay: Block of Cav2.2 (N-type) channels expressed in HEK293 cells
Assay type: cell-based
Conditions: HEK293; for inhibition at 10 µM: read-out: Cav 2.2 % Inh @ 10 μM; for inhibition at 30 µM: read-out: Cav 2.2 % Inh @ 30 μM
Text: Human Cav2.2 channels were stably expressed in HEK293 cells along with alpha2-delta and beta subunits of voltage-gated calcium channels. An inwardly rectifying potassium channel (Kir2.3) was also expressed in these cells to allow more precise control of the cell membrane potential by extracellular potassium concentration. At low bath potassium concentration, the membrane potential is relatively negative, and is depolarized as the bath potassium concentration is raised. In this way, the bath potassium concentration can be used to regulate the voltage-dependent conformations of the channels. Compounds are incubated with cells in the presence of low (4 mM) potassium or elevated (12, 25 or 30 mM) potassium to determine the affinity for compound block of resting (closed) channels at 4 mM potassium or affinity for block of open and inactivated channels at 12, 25 or 30 mM potassium. After the incubation period, Cav2.2 channel opening is triggered by addition of higher concentration of potassium (70 mM final concentration) to further depolarize the cell. The degree of state-dependent block can be estimated from the inhibitory potency of compounds after incubation in different potassium concentrations.
Calcium influx through Cav2.2 channels is determined using a calcium sensitive fluorescent dye in combination with a fluorescent plate reader. Fluorescent changes were measured with either a VIPR (Aurora Instruments) or FLIPR (Molecular Devices) plate reader.
Protocol • 1. Seed cells in Poly-D-Lysine Coated 96 or 384-well plate and keep in a 37° C.-10% CO2 incubator overnight • 2. Remove media, wash cells with 0.2 mL (96-well plate) or 0.05 mL (384-well plate) Dulbecco's Phosphate Buffered Saline (D-PBS) with calcium & magnesium (Invitrogen; 14040) • 3. Add 0.1 mL (96-well plate) or 0.05 mL (384-well plate) of 4 μM fluor-4 (Molecular Probes; F-14202) and 0.02% Pluronic acid (Molecular Probes; P-3000) prepared in D-PBS with calcium & magnesium (Invitrogen; 14040) supplemented with 10 mM Glucose & 10 mM Hepes/NaOH; pH 7.4 • 4. Incubate in the dark at 25° C. for 60-70 min • 5. Remove dye, wash cells with 0.1 mL (96-well plate) or 0.06 mL (384-well plate) of 4, 12, 25, or 30 mM Potassium Pre-polarization Buffer (PPB) • 6. Add 0.1 mL (96-well plate) or 0.03 mL (384-well plate) of 4, 12, 25, 30 mM PPB with or without test compound • 7. Incubate in the dark at 25° C. for 30 min • 8. Read cell plate on VIPR instrument, Excitation=480 nm, Emission=535 nm • 9. With VIPR continuously reading, add 0.1 mL (96-well plate) or 0.03 mL (384-well plate) of Depolarization Buffer (DB), which is 2× the final assay concentration, to the cell plate.
Block of N-type calcium channels is evaluated utilizing the IonWorks HT 384 well automated patch clamp electrophysiology device. This instrument allows synchronous recording from 384 well (48 at a time). A single whole cell recording is made in each well. Whole cell recording is established by perfusion of the internal compartment with amphotericin B.
The voltage protocol is designed to detect use-dependent block. A 2 Hz train of depolarizations (twenty 25 ms steps to +20 mV). The experimental sequence consists of a control train (pre-compound), incubation of cells with compound for 5 minutes, followed by a second train (post-compound). Use dependent block by compounds is estimated by comparing fractional block of the first pulse in the train to block of the 20th pulse.
Parallel patch clamp electrophysiology is performed using IonWorks HT (Molecular Devices Corp) essentially as described by Kiss and colleagues (Kiss et al. 2003; Assay and Drug Development Technologies, 1:127-135). Briefly, a stable HEK 293 cell line (referred to as CBK) expressing the N-type calcium channel subunits (α1B, α2δ, β3a) and an inwardly rectifying potassium channel (Kir2.3) is used to record barium current through the N-type calcium channel. Cells are grown in T75 culture plates to 60-90% confluence before use. […]

T1 sequence (Q00975 whole entry): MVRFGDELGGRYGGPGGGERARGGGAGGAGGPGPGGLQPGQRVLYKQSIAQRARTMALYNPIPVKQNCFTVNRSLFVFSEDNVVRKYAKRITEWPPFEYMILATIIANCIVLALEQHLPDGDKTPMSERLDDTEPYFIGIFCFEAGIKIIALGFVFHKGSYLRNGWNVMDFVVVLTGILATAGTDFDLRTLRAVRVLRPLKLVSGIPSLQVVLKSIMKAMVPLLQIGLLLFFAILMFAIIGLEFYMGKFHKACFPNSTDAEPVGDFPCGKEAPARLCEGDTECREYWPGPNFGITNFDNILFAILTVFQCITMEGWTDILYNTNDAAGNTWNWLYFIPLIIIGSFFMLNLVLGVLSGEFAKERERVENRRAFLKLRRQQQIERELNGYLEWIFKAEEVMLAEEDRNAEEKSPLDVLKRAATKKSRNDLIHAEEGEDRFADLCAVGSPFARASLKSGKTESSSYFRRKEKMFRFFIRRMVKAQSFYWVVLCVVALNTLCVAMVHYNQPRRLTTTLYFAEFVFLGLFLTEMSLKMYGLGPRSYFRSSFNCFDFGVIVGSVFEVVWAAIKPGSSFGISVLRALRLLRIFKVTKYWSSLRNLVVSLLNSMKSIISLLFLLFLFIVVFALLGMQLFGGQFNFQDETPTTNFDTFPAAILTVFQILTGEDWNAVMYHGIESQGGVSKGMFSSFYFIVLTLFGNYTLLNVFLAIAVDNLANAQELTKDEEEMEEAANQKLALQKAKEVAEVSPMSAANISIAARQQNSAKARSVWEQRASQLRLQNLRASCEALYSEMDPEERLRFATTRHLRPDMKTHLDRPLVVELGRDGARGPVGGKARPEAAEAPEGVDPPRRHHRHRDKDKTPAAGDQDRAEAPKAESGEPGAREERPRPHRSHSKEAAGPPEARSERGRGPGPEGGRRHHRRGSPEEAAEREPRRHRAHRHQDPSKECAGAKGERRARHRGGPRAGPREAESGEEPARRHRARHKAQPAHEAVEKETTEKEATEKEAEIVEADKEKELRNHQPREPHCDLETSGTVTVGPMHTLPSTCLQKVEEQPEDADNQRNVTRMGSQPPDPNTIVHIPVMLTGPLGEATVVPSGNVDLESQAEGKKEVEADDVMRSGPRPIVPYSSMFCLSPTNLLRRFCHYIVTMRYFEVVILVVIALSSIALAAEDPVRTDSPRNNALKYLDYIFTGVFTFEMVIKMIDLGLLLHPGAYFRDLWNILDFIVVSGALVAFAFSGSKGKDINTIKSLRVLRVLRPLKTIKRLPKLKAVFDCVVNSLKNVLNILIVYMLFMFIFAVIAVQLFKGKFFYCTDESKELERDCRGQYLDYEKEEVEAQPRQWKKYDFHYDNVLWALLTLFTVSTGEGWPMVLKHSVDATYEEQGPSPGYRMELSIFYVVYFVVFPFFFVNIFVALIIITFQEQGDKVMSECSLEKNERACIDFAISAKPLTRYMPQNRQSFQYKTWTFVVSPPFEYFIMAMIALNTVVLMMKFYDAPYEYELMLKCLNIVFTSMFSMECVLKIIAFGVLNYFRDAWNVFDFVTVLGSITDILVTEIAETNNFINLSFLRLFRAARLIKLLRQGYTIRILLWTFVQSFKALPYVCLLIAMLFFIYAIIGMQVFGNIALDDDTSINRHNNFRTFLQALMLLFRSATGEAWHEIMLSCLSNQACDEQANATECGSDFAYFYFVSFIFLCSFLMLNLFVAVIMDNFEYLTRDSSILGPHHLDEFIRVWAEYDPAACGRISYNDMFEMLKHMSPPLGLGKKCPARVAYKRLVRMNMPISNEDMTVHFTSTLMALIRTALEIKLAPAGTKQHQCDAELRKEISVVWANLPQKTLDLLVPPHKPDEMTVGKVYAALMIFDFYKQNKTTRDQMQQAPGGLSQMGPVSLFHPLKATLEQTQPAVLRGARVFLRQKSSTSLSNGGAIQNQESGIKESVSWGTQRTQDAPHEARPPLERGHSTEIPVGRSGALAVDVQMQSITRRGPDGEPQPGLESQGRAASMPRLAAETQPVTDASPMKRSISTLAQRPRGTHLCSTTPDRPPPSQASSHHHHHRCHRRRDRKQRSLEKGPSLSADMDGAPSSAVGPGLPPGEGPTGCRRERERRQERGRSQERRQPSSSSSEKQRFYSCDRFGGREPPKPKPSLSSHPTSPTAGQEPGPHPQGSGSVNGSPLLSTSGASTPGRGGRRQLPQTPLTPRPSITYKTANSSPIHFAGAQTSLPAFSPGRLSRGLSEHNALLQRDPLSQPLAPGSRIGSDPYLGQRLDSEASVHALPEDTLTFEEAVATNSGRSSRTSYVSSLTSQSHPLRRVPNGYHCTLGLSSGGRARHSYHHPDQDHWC
T1 sequence (P54289 25-956 partner limits assumed): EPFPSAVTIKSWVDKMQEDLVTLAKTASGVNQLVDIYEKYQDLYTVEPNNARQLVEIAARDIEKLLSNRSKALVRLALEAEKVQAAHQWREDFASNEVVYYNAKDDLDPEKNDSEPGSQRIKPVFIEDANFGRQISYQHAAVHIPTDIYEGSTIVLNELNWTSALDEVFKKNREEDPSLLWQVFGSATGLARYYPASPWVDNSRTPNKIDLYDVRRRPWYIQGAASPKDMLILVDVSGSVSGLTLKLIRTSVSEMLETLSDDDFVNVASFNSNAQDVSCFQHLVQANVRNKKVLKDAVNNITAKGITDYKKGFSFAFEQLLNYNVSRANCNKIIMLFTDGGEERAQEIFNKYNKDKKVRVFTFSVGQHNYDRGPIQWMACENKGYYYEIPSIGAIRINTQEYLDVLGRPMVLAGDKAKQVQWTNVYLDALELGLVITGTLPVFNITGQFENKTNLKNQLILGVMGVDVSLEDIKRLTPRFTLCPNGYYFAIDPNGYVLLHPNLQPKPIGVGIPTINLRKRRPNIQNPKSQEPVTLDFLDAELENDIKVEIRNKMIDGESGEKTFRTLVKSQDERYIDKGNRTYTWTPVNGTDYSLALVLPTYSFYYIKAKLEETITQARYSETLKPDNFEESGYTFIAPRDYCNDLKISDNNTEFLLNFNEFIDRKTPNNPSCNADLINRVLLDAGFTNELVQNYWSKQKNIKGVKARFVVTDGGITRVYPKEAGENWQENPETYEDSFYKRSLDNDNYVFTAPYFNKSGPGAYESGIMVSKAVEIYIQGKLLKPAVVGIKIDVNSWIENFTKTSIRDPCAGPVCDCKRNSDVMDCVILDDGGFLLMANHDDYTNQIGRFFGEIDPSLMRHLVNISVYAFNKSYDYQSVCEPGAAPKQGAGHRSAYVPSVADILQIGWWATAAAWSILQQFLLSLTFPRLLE
T1 sequence (P54289 957-1103 partner limits assumed): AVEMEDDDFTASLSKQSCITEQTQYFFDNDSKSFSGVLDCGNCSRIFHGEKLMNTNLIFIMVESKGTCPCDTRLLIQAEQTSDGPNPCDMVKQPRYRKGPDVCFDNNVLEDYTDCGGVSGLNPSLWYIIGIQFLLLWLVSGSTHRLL
T1 sequence (P54284 whole entry partner): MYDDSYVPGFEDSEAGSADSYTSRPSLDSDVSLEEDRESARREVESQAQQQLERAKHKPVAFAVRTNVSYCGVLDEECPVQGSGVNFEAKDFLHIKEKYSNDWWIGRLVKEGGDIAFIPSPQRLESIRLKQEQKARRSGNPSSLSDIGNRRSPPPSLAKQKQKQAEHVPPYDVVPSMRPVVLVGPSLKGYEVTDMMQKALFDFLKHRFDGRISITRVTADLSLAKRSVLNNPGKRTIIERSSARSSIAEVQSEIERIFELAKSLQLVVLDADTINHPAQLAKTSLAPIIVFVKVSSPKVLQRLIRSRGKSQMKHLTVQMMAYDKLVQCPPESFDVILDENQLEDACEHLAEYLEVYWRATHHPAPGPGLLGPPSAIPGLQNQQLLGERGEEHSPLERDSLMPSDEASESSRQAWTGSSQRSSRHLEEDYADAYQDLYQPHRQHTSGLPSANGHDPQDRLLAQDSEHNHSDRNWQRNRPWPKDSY

SMILES	inhibition at 10 µM [%]	inhibition at 30 µM [%]
Cc1cc(C(=O)N2CCN(c3cc(C(C)(C)C)cc(C(C)(C)C)c3)CC2)c(C(F)(F)F)o1 [Compound 1, (4-(3,5-di-tert-butylphenyl)piperazin-1-yl)(5-methyl-2-(trifluoromethyl)furan-3-yl)methanone]	91	101
CC(C)(C)c1cc(N2CCN(C(=O)c3ccncc3)CC2)cc(C(C)(C)C)c1 [Compound 2, (4-(3,5-di-tert-butylphenyl)piperazin-1-yl)(pyridin-4-yl)methanone]	90	94
CC(C)(C)c1cc(N2CCN(C(=O)c3ccc(S(C)(=O)=O)cc3Cl)CC2)cc(C(C)(C)C)c1 [Compound 5, (2-chloro-4-(methylsulfonyl)phenyl)(4-(3,5-di-tert-butylphenyl)piperazin-1-yl)methanone]	85	96
CC(C)(C)c1cc(N2CCN(C(=O)c3scc(S(C)(=O)=O)c3Cl)CC2)cc(C(C)(C)C)c1 [Compound 6, (3-chloro-4-(methylsulfonyl)thiophen-2-yl)(4-(3,5-di-tert-butylphenyl)piperazin-1-yl)methanone]	86	95
COc1ccc(Cl)cc1C(=O)N1CCN(c2cc(C(C)(C)C)cc(C(C)(C)C)c2)CC1 [Compound 9, (5-chloro-2-methoxyphenyl)(4-(3,5-di-tert-butylphenyl)piperazin-1-yl)methanone]	91	101
Cn1nc(C(C)(C)C)cc1C(=O)N1CCN(c2cc(C(C)(C)C)cc(C(C)(C)C)c2)CC1 [Compound 11, (3-tert-butyl-1-methyl-1H-pyrazol-5-yl)(4-(3,5-di-tert-butylphenyl)piperazin-1-yl)methanone]	91	97
CC(C)(C)c1cc(N2CCN(C(=O)c3cc(F)cc(C(F)(F)F)c3)CC2)cc(C(C)(C)C)c1 [Compound 12, (4-(3,5-di-tert-butylphenyl)piperazin-1-yl)(3-fluoro-5-(trifluoromethyl)phenyl)methanone]	84	98
Cc1ccc(C(=O)N2CCN(c3cc(C(C)(C)C)cc(C(C)(C)C)c3)CC2)c(C)c1 [Compound 15, (4-(3,5-di-tert-butylphenyl)piperazin-1-yl)(2,4-dimethylphenyl)methanone]	96	93
CC(C)c1ccc(C(=O)N2CCN(c3cc(C(C)(C)C)cc(C(C)(C)C)c3)CC2)cc1 [Compound 17, (4-(3,5-di-tert-butylphenyl)piperazin-1-yl)(4-isopropylphenyl)methanone]	80	97
CC(C)(C)c1cc(N2CCN(C(=O)c3csc(-c4cccc(C(F)(F)F)c4)n3)CC2)cc(C(C)(C)C)c1 [Compound 18, (4-(3,5-di-tert-butylphenyl)piperazin-1-yl)(2-(3-(trifluoromethyl)phenyl)thiazol-4-yl)methanone]	59	83
CC(C)(C)c1cc(N2CCN(C(=O)c3cc4cccnc4nc3C(F)(F)F)CC2)cc(C(C)(C)C)c1 [Compound 19]	49	69
CC(C)(C)c1cc(N2CCN(C(=O)c3ccc(S(=O)(=O)C(C)(C)C)s3)CC2)cc(C(C)(C)C)c1 [Compound 21, (5-(tert-butylsulfonyl)thiophen-2-yl)(4-(3,5-di-tert-butylphenyl)piperazin-1-yl)methanone]	53	78
CC(C)c1cc(C(=O)N2CCN(c3cc(C(C)(C)C)cc(C(C)(C)C)c3)CC2)on1 [Compound 24, (4-(3,5-di-tert-butylphenyl)piperazin-1-yl)(3-isopropylisoxazol-5-yl)methanone]	88	96
CC(C)(C)c1cc(N2CCN(C(=O)c3cc(S(C)(=O)=O)ccc3Cl)CC2)cc(C(C)(C)C)c1 [Compound 25, (2-chloro-5-(methylsulfonyl)phenyl)(4-(3,5-di-tert-butylphenyl)piperazin-1-yl)methanone]	89	99
Cc1ccc(S(C)(=O)=O)cc1C(=O)N1CCN(c2cc(C(C)(C)C)cc(C(C)(C)C)c2)CC1 [Compound 26, (4-(3,5-di-tert-butylphenyl)piperazin-1-yl)(2-methyl-5-(methylsulfonyl)phenyl)methanone]	87	98
CC(C)c1cc(C(=O)N2CCN(c3cc(C(C)(C)C)cc(C(C)(C)C)c3)CC2)c2cnn(C(C)C)c2n1 [Compound 27, (4-(3,5-di-tert-butylphenyl)piperazin-1-yl)(1,6-diisopropyl-1H-pyrazolo[3,4-b]pyridin-4-yl)methanone]	59	83
CC(C)(C)c1cc(N2CCN(C(=O)c3ccc(C(C)(C)C)s3)CC2)cc(C(C)(C)C)c1 [Compound 34, (5-tert-butylthiophen-2-yl)(4-(3,5-di-tert-butylphenyl)piperazin-1-yl)methanone]	52	59
Cc1oc(C(C)(C)C)cc1C(=O)N1CCN(c2cc(C(C)(C)C)cc(C(C)(C)C)c2)CC1 [Compound 35, (5-tert-butyl-2-methylfuran-3-yl)(4-(3,5-di-tert-butylphenyl)piperazin-1-yl)methanone]	77	95
CC(C)(C)c1cc(N2CCN(C(=O)c3ccc(C(O)(C(F)(F)F)C(F)(F)F)cc3)CC2)cc(C(C)(C)C)c1 [Compound 36, (4-(3,5-di-tert-butylphenyl)piperazin-1-yl)(4-(1,1,1,3,3,3-hexafluoro-2-hydroxypropan-2-yl)phenyl)methanone]	32	73
CC(C)(C)c1cc(N2CCN(C(=O)c3cc4cc(C(F)(F)F)ccc4s3)CC2)cc(C(C)(C)C)c1 [Compound 39, (4-(3,5-di-tert-butylphenyl)piperazin-1-yl)(5-(trifluoromethyl)benzo[b]thiophen-2-yl)methanone]	15	41
CC(C)(C)c1cc(N2CCN(C(=O)c3cc(C4CC4)nc4ccccc34)CC2)cc(C(C)(C)C)c1 [Compound 40, (2-cyclopropylquinolin-4-yl)(4-(3,5-di-tert-butylphenyl)piperazin-1-yl)methanone]	86	91
CC(C)(C)c1cc(N2CCN(C(=O)c3cc(C4CC4)n[nH]3)CC2)cc(C(C)(C)C)c1 [Compound 42, (3-cyclopropyl-1H-pyrazol-5-yl)(4-(3,5-di-tert-butylphenyl)piperazin-1-yl)methanone]	54	98
CC1CCc2sc(C(=O)N3CCN(c4cc(C(C)(C)C)cc(C(C)(C)C)c4)CC3)cc2C1 (stereo not drawn) [Compound 43, (4-(3,5-di-tert-butylphenyl)piperazin-1-yl)(5-methyl-4,5,6,7-tetrahydrobenzo[b]thiophen-2-yl)methanone]	46	57
CCCc1cc(C(=O)N2CCN(c3cc(C(C)(C)C)cc(C(C)(C)C)c3)CC2)sc1C [Compound 44, (4-(3,5-di-tert-butylphenyl)piperazin-1-yl)(5-methyl-4-propylthiophen-2-yl)methanone]	65	81
